pIC50: −log10 of the molar value.
How the values were obtained:
Type in all cases: cell-based
[1] = molecular target: T1, human CCR2 (Homo sapiens, UniProt P41597); test: Functional Ca2+ release test (B-1); details: Chem-1 cell line transfected with human CCR2; 50% inhibition of the MCP-1 effect, MCP-1 at EC50 (about 5 nM); in some cases means of several determinations
T1 construct: host or cells: Chem-1 cell line
T1 sequence (P41597 1-360 isoform P41597-2): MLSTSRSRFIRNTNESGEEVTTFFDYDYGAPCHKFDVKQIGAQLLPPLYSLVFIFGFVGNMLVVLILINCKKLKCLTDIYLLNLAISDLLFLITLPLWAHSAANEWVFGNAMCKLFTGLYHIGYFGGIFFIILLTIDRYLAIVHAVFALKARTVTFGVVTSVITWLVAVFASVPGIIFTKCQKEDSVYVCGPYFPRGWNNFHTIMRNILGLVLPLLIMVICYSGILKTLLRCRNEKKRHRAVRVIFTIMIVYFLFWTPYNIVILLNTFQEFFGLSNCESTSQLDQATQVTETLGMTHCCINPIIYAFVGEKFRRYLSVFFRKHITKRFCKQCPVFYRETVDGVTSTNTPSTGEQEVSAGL
Outline: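 Inhibition of MCP-1-evoked Ca2+ release was measured over 120 s by fluorescence imaging in Fluo-4-loaded, human CCR2-transfected Chem-1 cells. Compounds, tested in 10-point 1:3.16 series, were added 10 min before agonist at its EC50 (typically about 5 nM). IC50 values were obtained by 4-parameter logistic fitting.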

[2] = molecular target: T2, murine CCR2 (Mus musculus, UniProt P51683); test: Functional β-arrestin recruiting test with human MCP-1 (B-2a); details: U2OS β-arrestin cell line transfected with murine CCR2; agonist human MCP-1 at EC50 (about 3 nM); in some cases means of several determinations
T2 construct: host or cells: U2OS β-arrestin cell line
Outline: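 Antagonist mode in U2OS cells expressing murine CCR2, read by PathHunter β-galactosidase complementation luminescence. Cells pre-incubated 10 min with 10-point compound dilutions (1:3.16 steps), then stimulated with human MCP-1 at its EC50 (usually about 3 nM) for 90 min at 37° C.; IC50 from 4-parameter logistic fit.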

[3] = molecular target: T2, murine CCR2; test: Functional β-arrestin recruiting test with murine MCP-1 (B-2b); details: U2OS β-arrestin cell line transfected with murine CCR2; agonist murine MCP-1; in some cases means of several determinations
Outline: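 In a PathHunter β-galactosidase complementation assay, U2OS cells expressing murine CCR2 were preincubated 10 min with compound (10-point, 1:3.16 dilutions), then challenged with murine MCP-1 at its predetermined EC50 for 90 min at 37 °C. Luminescence was read after 60 min, and IC50 was fitted with a 4-parameter Hill function.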

T2 sequence (P51683 whole entry): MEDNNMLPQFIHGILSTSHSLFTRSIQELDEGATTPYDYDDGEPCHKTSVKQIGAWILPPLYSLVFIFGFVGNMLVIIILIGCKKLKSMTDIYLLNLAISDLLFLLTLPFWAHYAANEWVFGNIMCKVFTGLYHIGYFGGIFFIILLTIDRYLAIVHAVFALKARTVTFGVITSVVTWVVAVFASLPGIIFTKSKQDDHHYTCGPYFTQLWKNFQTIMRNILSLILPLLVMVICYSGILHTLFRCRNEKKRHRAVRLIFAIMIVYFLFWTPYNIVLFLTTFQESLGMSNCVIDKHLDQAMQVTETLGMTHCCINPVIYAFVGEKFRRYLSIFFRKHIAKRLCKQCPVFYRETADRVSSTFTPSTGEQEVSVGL

Compound | pIC50 [1] | pIC50 [2] | pIC50 [3]
Nc1cccc(-c2nc(C(F)(F)F)c(Oc3ccc(Cl)c(C(F)(F)F)c3)c(=O)[nH]2)n1 [Example 44, 2-(6-aminopyridin-2-yl)-5-[4-chloro-3-(trifluoromethyl)phenoxy]-6-(trifluoromethyl)pyrimidin-4(3H)-one] | 8.66 | 7.13 | 6.65
O=c1[nH]c(-c2ncccc2Cl)nc(C(F)(F)F)c1Cc1ccc(Cl)c(C(F)(F)F)c1 [Example 35, 2-(3-chloropyridin-2-yl)-5-[4-chloro-3-(trifluoromethyl)benzyl]-6-(trifluoromethyl)pyrimidin-4(3H)-one] | 8.82 | 7.46 | 6.80
O=c1[nH]c(-c2ccccn2)nc(C(F)(F)F)c1Oc1ccc(Cl)c(Cl)c1 [Example 3, 5-(3,4-dichlorophenoxy)-2-(pyridin-2-yl)-6-(trifluoromethyl)pyrimidin-4(3H)-one] | 8.92 | 7.51 | 6.69
Cn1cnc(-c2nc(C(F)(F)F)c(Oc3ccc(Cl)c(C(F)(F)F)c3)c(=O)[nH]2)c1 [Example 59, 5-[4-chloro-3-(trifluoromethyl)phenoxy]-2-(1-methyl-1H-imidazol-4-yl)-6-(trifluoromethyl)pyrimidin-4(3H)-one] | 9.22 | 7.92 | 6.97
COc1ncccc1-c1nc(C(F)(F)F)c(Oc2ccc(Cl)c(C(F)(F)F)c2)c(=O)[nH]1 [Example 37, 5-[4-chloro-3-(trifluoromethyl)phenoxy]-2-(2-methoxypyridin-3-yl)-6-(trifluoromethyl)pyrimidin-4(3H)-one] | 9.05 | 7.40 | 6.91
O=c1[nH]c(-n2cccn2)nc(C(F)(F)F)c1Oc1ccc(Cl)c(Cl)c1 [Example 51, 5-(3,4-dichlorophenoxy)-2-(1H-pyrazol-1-yl)-6-(trifluoromethyl)pyrimidin-4(3H)-one] | 9.30 | 7.70 | 6.95
O=c1[nH]c(-c2ncccc2Cl)nc(C(F)(F)F)c1Cc1ccc(Cl)c(Cl)c1 [Example 16, 2-(3-chloropyridin-2-yl)-5-(3,4-dichlorobenzyl)-6-(trifluoromethyl)pyrimidin-4(3H)-one] | 8.68 | 7.68 | 6.51

Continued by rising pIC50 [1], values first:

pIC50 [1] | pIC50 [2] | pIC50 [3] | Compound
8.54 | 7.06 | 6.42 | O=c1[nH]c(-c2ncc(F)cc2F)nc(C(F)(F)F)c1Oc1ccc(Cl)c(Cl)c1 [Example 4, 5-(3,4-dichlorophenoxy)-2-(3,5-difluoropyridin-2-yl)-6-(trifluoromethyl)pyrimidin-4(3H)-one]
9.00 | 7.89 | 7.30 | O=c1[nH]c(-c2ncccc2Cl)nc(C(F)(F)F)c1Oc1ccc(Cl)c(Cl)c1 [Example 5, 2-(3-chloropyridin-2-yl)-5-(3,4-dichlorophenoxy)-6-(trifluoromethyl)pyrimidin-4(3H)-one]
9.05 | 7.70 | 7.30 | O=c1[nH]c(-c2ncccc2F)nc(C(F)(F)F)c1Oc1ccc(Cl)c(C(F)(F)F)c1 [Example 39, 5-[4-chloro-3-(trifluoromethyl)phenoxy]-2-(3-fluoropyridin-2-yl)-6-(trifluoromethyl)pyrimidin-4(3H)-one]
9.10 | 7.25 | 6.81 | O=c1[nH]c(-c2cn[nH]c2)nc(C(F)(F)F)c1Oc1ccc(Cl)c(C(F)(F)F)c1 [Example 70, 5-[4-chloro-3-(trifluoromethyl)phenoxy]-2-(1H-pyrazol-4-yl)-6-(trifluoromethyl)pyrimidin-4(3H)-one]
9.40 | 8.09 | 7.27 | COc1cccnc1-c1nc(C(F)(F)F)c(Oc2ccc(Cl)c(Cl)c2)c(=O)[nH]1 [Example 24, 5-(3,4-dichlorophenoxy)-2-(3-methoxypyridin-2-yl)-6-(trifluoromethyl)pyrimidin-4(3H)-one]
